The record followed here is US20260092057A1, “BCL-XL/BCL-2 DEGRADERS AND USES THEREOF” (Kymera Therapeutics, Inc., priority 2022, published 2026).

pIC50: −log10 of the molar value.

One test relates to MOLT-4 cells. Kind of test: CTG (CellTiter-Glo) cell viability assay, MOLT-4. It is filed as cell-based. The settings on record: Homo sapiens, MOLT-4, 72 h, MOLT-4, 3 day; read-out: CTG Cell Viability Assay - MOLT-4 3 day: Average external-IC50. How it is done: (§1) Compound-mediated viability effect on MOLT-4 and Caki-2 was quantitatively determined using the CellTiter-Glo® Luminescent Cell Viability Assay kit from Promega (Catalog number G7570) following manufacturer's recommended procedures. Briefly, MOLT-4 and Caki-2 cells were seeded into 384 well plates (Grenier Bio-One, Catalog number 781080) with a density of 10,000 cells per well. Compounds were then added to the assay plate with final top concentration of 10 µM and 1:3 dilution series with total of 9 doses. The final DMSO concentration is normalized to 0.2%. The assay plates were incubated at 37° C. for 3 days under 5% CO2. Then the assay plate was equilibrated at room temperature for 10 minutes. To determine cell viability, 30 uL CellTiter Glo reagent was added to each well and the assay plate was centrifuged at 1000 rpm for 30 second, incubated at room temperature for 10 min, and analyzed by detecting the luminescence using a multimode plate reader (EnVision 2105, PerkinElmer). The data was then analyzed by software Prism 7.0 from GraphPad and the dose response curves are fit using a three-parameter logistic equation to calculate IC50.
(§2) The letter codes for MOLT-4 IC50 include: A (<0.1 μM); B (0.1-1.0 μM); C (>1.0-3.0 μM); and D (>3.0 μM). The letter codes for Caki-2 IC50 include: A (<5 μM); B (5-10 μM); C (>10-30.0 μM); and D (>30.0 μM).
(In general: Cellular ATP, detected with luciferase, serves as a proxy for viable cell number.)

Another test concerns Caki-2 cells. Kind of test: CTG (CellTiter-Glo) cell viability assay, Caki-2. It is filed as cell-based. The conditions noted are these: Homo sapiens, CAKI-2, 72 h, Caki-2, 3-day; read-out: CTG Chempartner/PHA- Caki-2 3-day: Average external-IC50. How it is done: as §1, §2

On to `Cc1ncsc1-c1ccc([C@H](C)NC(=O)[C@@H]2C[C@@H](O)CN2C(=O)[C@@H](NC(=O)CCCCCC(=O)N(C)CCCNc2ccc(S(=O)(=O)NC(=O)c3ccc(N4CCC([C@H](O)c5ccccc5-c5ccc(Cl)cc5)CC4)cc3Oc3cnc4[nH]ccc4c3)cc2S(=O)(=O)C(F)(F)F)C(C)(C)C)cc1` (single isomer, unassigned) [I-58], for which the pIC50 was 5.52 to 6.00 in the test on MOLT-4 cells and under 4.52 in the test with Caki-2 cells.

Regarding `Cc1ncsc1-c1ccc([C@H](C)NC(=O)[C@@H]2C[C@@H](O)CN2C(=O)[C@@H](NC(=O)CCCC(=O)N2CCN(CCCNc3ccc(S(=O)(=O)NC(=O)c4ccc(N5CCC([C@@H](O)c6ccccc6-c6ccc(Cl)cc6)CC5)cc4Oc4cnc5[nH]ccc5c4)cc3S(=O)(=O)C(F)(F)F)CC2)C(C)(C)C)cc1` (single isomer, unassigned) [I-59], the pIC50 with MOLT-4 cells is under 5.52; with Caki-2 cells, under 4.52.

For `Cc1ncsc1-c1ccc([C@H](C)NC(=O)[C@@H]2C[C@@H](N)CN2C(=O)[C@@H](NC(=O)C2CCN(CCCNc3ccc(S(=O)(=O)NC(=O)c4ccc(N5CCC([C@@H](O)c6ccccc6-c6ccc(Cl)cc6)CC5)cc4Oc4cnc5[nH]ccc5c4)cc3S(=O)(=O)C(F)(F)F)CC2)C(C)(C)C)cc1` (single isomer, unassigned) [I-91], the pIC50 in the test on MOLT-4 cells was under 5.52; in the test with Caki-2 cells, under 4.52.

In the case of `Cc1ncsc1-c1ccc([C@H](C)NC(=O)[C@@H]2C[C@@H](O)CN2C(=O)[C@@H](NC(=O)CCCCCC(=O)N2CCN(c3ccc(-c4ccc(Cl)cc4)c([C@@H](O)C4CCN(c5ccc(C(=O)NS(=O)(=O)c6ccc(N[C@H](CCN(C)CCO)CSc7ccccc7)c(S(=O)(=O)C(F)(F)F)c6)cc5)CC4)c3)CC2)C(C)(C)C)cc1` (single isomer, unassigned) [I-114], the pIC50 in the test on MOLT-4 cells was under 5.52; with Caki-2 cells, under 4.52.

In the case of `Cc1ncsc1-c1ccc([C@H](C)NC(=O)[C@@H]2C[C@@H](O)CN2C(=O)[C@@H](NC(=O)C2CCN(c3ccc(S(=O)(=O)NC(=O)c4ccc(-c5ccc(Cl)cc5)c(CN5CCN(c6ccc(C(=O)NS(=O)(=O)c7ccc(N[C@H](CCN(C)C)CSc8ccccc8)c([N+](=O)[O-])c7)cc6)CC5)c4)cc3)CC2)C(C)(C)C)cc1` [I-15], the pIC50 is under 5.52 with MOLT-4 cells and under 4.52 with Caki-2 cells.

Consider `Cc1ncsc1-c1ccc([C@H](C)NC(=O)[C@@H]2C[C@@H](O)CN2C(=O)[C@@H](NC(=O)CCCCC(=O)N2C[C@H]3C[C@@H]2CN3Cc2ccc(-c3ccc(Cl)cc3)c(CN3CCN(c4ccc(C(=O)NS(=O)(=O)c5ccc(N[C@H](CCN(C)C)CSc6ccccc6)c([N+](=O)[O-])c5)cc4)CC3)c2)C(C)(C)C)cc1` [I-16], for which the pIC50 in the test with MOLT-4 cells is under 5.52; with Caki-2 cells it was under 4.52.

As to `Cc1ncsc1-c1ccc([C@H](C)NC(=O)[C@@H]2C[C@@H](O)CN2C(=O)[C@@H](NC(=O)CCCCC(=O)N2CCC3(CCN(Cc4ccc(-c5ccc(Cl)cc5)c(CN5CCN(c6ccc(C(=O)NS(=O)(=O)c7ccc(N[C@H](CCN(C)C)CSc8ccccc8)c([N+](=O)[O-])c7)cc6)CC5)c4)CC3)CC2)C(C)(C)C)cc1` [I-17], the pIC50 with MOLT-4 cells was under 5.52; with Caki-2 cells, under 4.52.

With `Cc1ncsc1-c1ccc(CNC(=O)[C@@H]2C[C@@H](O)CN2C(=O)[C@@H](NC(=O)C2(F)CC2)C(C)(C)C)c(OCCCCCCC(=O)N2CCN(Cc3ccc(-c4ccc(Cl)cc4)c(CN4CCN(c5ccc(C(=O)NS(=O)(=O)c6ccc(N[C@H](CCN(C)C)CSc7ccccc7)c([N+](=O)[O-])c6)cc5)CC4)c3)CC2)c1` [I-18], the pIC50 in the test on MOLT-4 cells was under 5.52; in the test on Caki-2 cells it was under 4.52.

As for `Cc1ncsc1-c1ccc([C@H](C)NC(=O)[C@@H]2C[C@@H](O)CN2C(=O)[C@@H](NC(=O)CCCCCCCCC(=O)NCc2ccc(-c3ccc(Cl)cc3)c(CN3CCN(c4ccc(C(=O)NS(=O)(=O)c5ccc(N[C@H](CCN(C)C)CSc6ccccc6)c([N+](=O)[O-])c5)cc4)CC3)c2)C(C)(C)C)cc1` [I-20], the pIC50 with MOLT-4 cells was under 5.52; with Caki-2 cells, under 4.52.

As to `Cc1ncsc1-c1ccc([C@H](C)NC(=O)[C@@H]2C[C@@H](O)CN2C(=O)[C@@H](NC(=O)CCCCCC(=O)N2CCN(Cc3ccc(-c4ccc(Cl)cc4)c([C@H](O)C4CCN(c5ccc(C(=O)NS(=O)(=O)c6ccc(N[C@H](CCN(C)CCO)CSc7ccccc7)c(S(=O)(=O)C(F)(F)F)c6)cc5)CC4)c3)CC2)C(C)(C)C)cc1` [I-30], the pIC50 in the test on MOLT-4 cells was under 5.52; in the test with Caki-2 cells it was under 4.52.

Consider `Cc1ncsc1-c1ccc([C@H](C)NC(=O)[C@@H]2C[C@@H](O)CN2C(=O)[C@@H](NC(=O)CCCCCC(=O)N2CCN(CC[C@H](CSc3ccccc3)Nc3ccc(S(=O)(=O)NC(=O)c4ccc(NC5CC(C)C5)cc4)cc3S(=O)(=O)C(F)(F)F)CC2)C(C)(C)C)cc1` (stereo partly drawn) [I-44], for which the pIC50 is under 5.52 with MOLT-4 cells and under 4.52 in the test with Caki-2 cells.

As to `Cc1ncsc1-c1ccc([C@H](C)NC(=O)[C@@H]2C[C@@H](O)CN2C(=O)[C@@H](NC(=O)CCCCCC(=O)N2CCN(CC[C@H](CSc3ccccc3)Nc3ccc(S(=O)(=O)NC(=O)c4ccc(N5CC6(CCC6)C5)cc4)cc3S(=O)(=O)C(F)(F)F)CC2)C(C)(C)C)cc1` [I-45], the results for the pIC50 in the test on MOLT-4 cells and with Caki-2 cells were under 5.52 and under 4.52, respectively.

Consider `Cc1ncsc1-c1ccc([C@H](C)NC(=O)[C@@H]2C[C@@H](O)CN2C(=O)[C@@H](NC(=O)CCCCCC(=O)N2CCN(CC[C@H](CSc3ccccc3)Nc3ccc(S(=O)(=O)NC(=O)c4ccc(N5CC[C@@H](N(C)C)C5)cc4)cc3S(=O)(=O)C(F)(F)F)CC2)C(C)(C)C)cc1` [I-46], for which the values for the pIC50 with MOLT-4 cells and in the test with Caki-2 cells were under 5.52 and under 4.52, respectively.

`Cc1ncsc1-c1ccc([C@H](C)NC(=O)[C@@H]2C[C@@H](O)CN2C(=O)[C@@H](NC(=O)CCCCCC(=O)N2CCN(CC[C@H](CSc3ccccc3)Nc3ccc(S(=O)(=O)NC(=O)c4ccc(N5CC6CN(C)CC6C5)cc4)cc3S(=O)(=O)C(F)(F)F)CC2)C(C)(C)C)cc1` (stereo partly drawn) [I-47]: the values for the pIC50 in the test with MOLT-4 cells and with Caki-2 cells were under 5.52 and under 4.52, respectively.

Regarding `Cc1ncsc1-c1ccc([C@H](C)NC(=O)[C@@H]2C[C@@H](O)CN2C(=O)[C@@H](NC(=O)CCCCCC(=O)N2CCN(CC[C@H](CSc3ccccc3)Nc3ccc(S(=O)(=O)NC(=O)c4ccc(N5CCC(N(C)C)CC5)cc4)cc3S(=O)(=O)C(F)(F)F)CC2)C(C)(C)C)cc1` [I-48], the pIC50 in the test on MOLT-4 cells was under 5.52; in the test on Caki-2 cells it was under 4.52.

On to `Cc1ncsc1-c1ccc([C@H](C)NC(=O)[C@@H]2C[C@@H](O)CN2C(=O)[C@@H](NC(=O)CCCCCC(=O)N2CCN(CC[C@H](CSc3ccccc3)Nc3ccc(S(=O)(=O)NC(=O)c4ccc(N5CC(N(C)C)C5)cc4)cc3S(=O)(=O)C(F)(F)F)CC2)C(C)(C)C)cc1` [I-49], for which the pIC50 in the test with MOLT-4 cells is under 5.52; in the test on Caki-2 cells, under 4.52.

For the compound `Cc1ncsc1-c1ccc([C@H](C)NC(=O)[C@@H]2C[C@@H](O)CN2C(=O)[C@@H](NC(=O)CCCCCC(=O)N2CCN(CC[C@H](CSc3ccccc3)Nc3ccc(S(=O)(=O)NC(=O)c4ccc(N5CCC6(CN(C)C6)C5)cc4)cc3S(=O)(=O)C(F)(F)F)CC2)C(C)(C)C)cc1` [I-50], the figures for the pIC50 in the test with MOLT-4 cells and in the test on Caki-2 cells were under 5.52 and under 4.52, respectively.

For `Cc1ncsc1-c1ccc([C@H](C)NC(=O)[C@@H]2C[C@@H](O)CN2C(=O)[C@@H](NC(=O)CCCCCC(=O)N2CCN(CC[C@H](CSc3ccccc3)Nc3ccc(S(=O)(=O)NC(=O)c4ccc(N5CCN(C)CC5)cc4)cc3S(=O)(=O)C(F)(F)F)CC2)C(C)(C)C)cc1` [I-53], the pIC50 in the test on MOLT-4 cells was under 5.52; in the test with Caki-2 cells, under 4.52.
